According to patent US5272151A, “Aminoacyl and oligopeptidyl derivatives of allopurinol exhibiting immunostimulatory activity, and pharmaceutical formulations containing these substances” (Sigma-Tau Industrie Farmaceutiche Riunite S.p.A., priority 1991, dated 1993):

Experiments:
[1] = tested on: plaque-forming cells (PFC) in the spleen of mice immunised with sheep red blood cells (SRBC); assay: Production of primary antibodies (Jerne test) in the spleen of mice immunised with SRBC; type: in vivo; details: for PFC/10^6 cells (x ± S.E.) / PFC/spleen (x ± S.E.): 25 mg/kg/d i.p. from day -3 through day 3, SRBC immunisation day 0, B6D2F1 mice
Procedure: The effects of ST 689 and ST 789 on the production of primary antibodies (Jerne test) in the spleen of mice immunised with sheep red blood cells (SRBC).
Male hybrid B6 D2 F1 mice (Charles River, Italy), 7-8 weeks old, were used in experimental groups of 6 animals each. In this test, each animal was examined individually.
The compounds were administered intraperitoneally at a daily dose of 25 mg/kg from day -3 to day +3, where day 0 was the day of immunisation. The experimental procedure employed is described in Jerne, N. K. et al., Transpl. Rev., 18:30 (1974). Animals were immunised by i.p. administration of a suspension of SRBC (1×10^8 cells/mouse in 0.2 mL of PBS buffer). Five days following this treatment, the animals were killed and their spleens sterilely removed. The splenocytes were suspended at a concentration of 1×10^7 cells/ml, and 0.1 mL of this splenocyte suspension was mixed with 2 mL of warm Hank's agar medium +0.2 mL of 10% SRBC in PBS buffer and incubated in a Petri dish for 60 min at 37° C. (the samples were tested in triplicate). Complement (2 mL of guinea pig serum diluted 1:10 with Tris buffer) was added, and the Petri dishes incubated for 30 min at 37° C. In the presence of complement the cells secreted anti-SRBC antibodies, which evoked a haemolytic reaction. Such a reaction is indicative of lytic plaques in the samples contained in the Petri dishes.
The results are expressed as: […]
a) number of plaque-forming cells (PFC) in a population of 1×10^6cells;
b) number of PFC in intact spleens.
The values obtained were analysed using Dunnett's test (Biostatistics in Pharmacology, vol. 2, Pergamon Press) to ascertain the statistical significance of differences between the treated and control animal groups.

E. coli = assay: Protective effect in experimentally-infected immunosuppressed mice (E. coli); type: in vivo; details: cyclophosphamide-immunodepressed CD1 mice; 25 mg/kg/d i.p. day -5 through day -1; challenge day 0
Source text: Evaluation of the protective effects of ST 689 and ST 789 in experimentally-infected immunosuppressed mice.
Male CDl mice (Charles River, Italy), 6-10 weeks old, were used in experimental groups of 9-20 animals. Systemic infection in the mice was achieved by intrapcritoncal inoculation of a pathogenic species of Klebsiclla (K. oxytoca), Proteus (P. mirabilis), Serratia (S. marcescens),and Hscherichia (E. coli). Eighteen-hour broth cultures were used to prepare infectious inocula that were either sublethal (Proteus) or which corresponded to an LD30 (Serratia) and an LD10 (Escherichia, Klebsiella). The bacterial challenge, inoculated i.p. in 0.5 mL of 5% gastric mucin, was designed to cause the death of animals immunodepressed with cyclophosphamide (administered i.p. in 0.2 mL of sterile physiological solution at a dosage of 100 mg/kg) 5 days prior to infection. The compounds were administered i.p. at daily doses of 25 mg/kg from day -5 to day -1 with respect to the day of bacterial inoculation (day 0). The results are expressed as % mortality and were statistically analysed using Fisher's test (Biostatistics in Pharmacology, vol. 2, Pergamon Press).

Sarcoma 180 = assay: Protective effect in mice carrying Sarcoma 180; type: in vivo; details: for % survival: CD1 mice carrying Sarcoma 180; for % survival / Died/Total / MST (Mean Survival Time; median): 25 mg/kg/d i.p. day +1 through +10; for Died/Total / MST (Mean Survival Time; median): CD1 mice, 1×10^4 Sarcoma 180 cells i.p.; for MST (Mean Survival Time; median): 25 mg/kg/day; for Body weight (x ± S.E.) of Sarcoma 180-carrying animals: 25 mg/kg/d i.p., in g
Procedure: Evaluation of the protective effect of ST 689 and ST 789 in tumour-carryingmice,
Outbred male CDI mice (Charles River, Italy), 7 weeks old, were used. Experimental groups containing 10 animals were inoculated i.p. with 1×10^4 Sarcoma 180 cells (ATCC, Rockville, Md., U.S.A.) in 0.1 mL of TC 199 medium. The compounds were administered intraperitoneally in 0.2 mL of sterile physiological solution at daily doses of 25 mg/kg from day +1 through day +10 relative to the day of tumour transplant (day 0). In addition, body weights of the animals were followed from day 0 through day 20. The weights of the animals can be indicative of the development of neoplastic processes. The activity of the compounds was evaluated in terms of % survival expressed as the Mean Survival Time (MST). The data reported in Table 4 indicate a substancial protective effect of ST 689 compared to ST 789 vis-a-vis % survival (20% vs. 10%) in terms of MST (21 vs. 17).

[2] = Weight survey of rats in the IL-2 test (Test 5); type: in vivo, rat; details: Fisher rats; 25 mg/kg daily i.p. day -5 through day -1
Procedure: (§1) Male Fisher rats (Charles River, Italy), 3 months old, in experimental groups of 5 animals, were treated with the substances at daily dosages of 25 mg/kg from day -5 through day -1 relative to the day the spleens were sampled (day 0). The experimental procedure employed was that reported in [1]. To suspensions of splenocytes, prepared in RPMI 1640 with 10% FCS+1×10^-5 M β-mercaptoethanol and standardised to a concentration of 1×10^7 cells/mL, were added equal volumes of ConA at a concentration of 18 μg/mL/well. After incubating for 48 h at 37° C. in the presence of 5% CO2 the samples were centrifuged and the supernates collected. Serial dilutions of the supernates were added to CTLL-2 cells (a line of T-cells requiring IL-2 for growth) standardised at 5×10^4 cells/mL. Following an overnight incubation, the samples were labelled with ^3 H--TdR (0.5 μCi/well)for 6 h, then the cells were collected on filters using a cell harvester, and counted (cpm) using a β-counter. The results are expressed in units of IL-2, comparing the counts in the samples to a standard curve prepared with purified IL-2 . . . ls1.

IL-2 = assay: In vitro-ex vivo production of IL-2 by rat splenocytes (CTLL-2 bioassay); details: for IL-2 in supernates from rat splenocytes: ConA-stimulated splenocytes, 48 h, 25 mg/kg daily i.p. day -5 through day -1
Procedure: In vitro-ex vivo effect of ST 689 and ST 789 on the production of IL-2 by rat splenocytes.
as §1

[3] = day +13, number in parentheses = animals still alive
[4] = day +15, number in parentheses = animals still alive
[5] = day +17, number in parentheses = animals still alive
[6] = day +20, number in parentheses = animals still alive

SMILES	PFC/10^6 cells (x ± S.E.) [1] [PFC/10^6 cells]	PFC/spleen (x ± S.E.) [1] [PFC/spleen]	% Mortality, E. coli (E. coli) [%]	% survival (Sarcoma 180) [%]	Died/Total (Sarcoma 180)	MST (Mean Survival Time; median) (Sarcoma 180)	Body weight (x ± S.E.) of Sarcoma 180-carrying animals (Sarcoma 180; day 0)	Body weight (x ± S.E.) of Sarcoma 180-carrying animals (Sarcoma 180; day +1)	Body weight (x ± S.E.) of Sarcoma 180-carrying animals (Sarcoma 180; day +3)	Body weight (x ± S.E.) of Sarcoma 180-carrying animals (Sarcoma 180; day +6)	Body weight (x ± S.E.) of Sarcoma 180-carrying animals (Sarcoma 180; day +8)	Body weight (x ± S.E.) of Sarcoma 180-carrying animals (Sarcoma 180; day +10)	Body weight (x ± S.E.) of Sarcoma 180-carrying animals (Sarcoma 180; [3])	Body weight (x ± S.E.) of Sarcoma 180-carrying animals (Sarcoma 180; [4])	Body weight (x ± S.E.) of Sarcoma 180-carrying animals (Sarcoma 180; [5])	Body weight (x ± S.E.) of Sarcoma 180-carrying animals (Sarcoma 180; [6])	Body weight [2] [g]	Spleen weight [2] [mg]	IL-2 in supernates from rat splenocytes (IL-2) [U/mL]	also measured
N=C(N)NCCC[C@H](NC(=O)OCCCCCn1cnc2c(=O)[nH]cnc21)C(=O)O [ST 789, N-alfa-5-(hypoxanthin-9-yl)-pentyloxycarbonylarginine, reference compound]	220 ± 30	35011 ± 4761	20	10	9/10	17	22.8 ± 0.30	23.6 ± 0.34	24.8 ± 0.30	27.6 ± 0.46	29.5 ± 0.64	31.5 ± 0.92	32.2 ± 0.96	33.4 ± 1.05	33.7 ± 1.46	34.8 ± 3.90	275.0 ± 3.76	539.2 ± 12.11	98.43 ± 4.47	
O=c1[nH]cnc2c1cnn2CCCCCO [ST 689, 1,5-dihydro-1-(5-hydroxypentyl)-4H-pyrazolo-[3,4-d]-pyrimidin-4-one]	303 ± 47	64839 ± 15985	40	20	8/10	21	23.0 ± 0.38	23.7 ± 0.34	24.5 ± 0.50	27.1 ± 0.62	28.3 ± 0.97	28.4 ± 0.81	28.6 ± 0.89	30.5 ± 1.28	32.5 ± 1.70	32.6 ± 1.85	271.6 ± 4.76	511.0 ± 22.35	183.25 ± 22.55	Activity in terms of the number of PFC per spleen, in words ([1]; 25 mg/kg/d i.p., increase not statistically significant with respect to the control): more active than ST 789; Neoplastic proliferation judged from body weights, in words (Sarcoma 180; compared to animals treated with ST 789): diminution of neoplastic proliferation; Production of IL-2 by splenocytes, in words (IL-2; compared to the same dosage of ST 789): increase in the production of IL-2
